Test results published in patent publication EP0390718A1, “Process for preparing new 1-diphenylmethylpiperidine derivatives” (FABRICA ESPANOLA DE PRODUCTOS QUIMICOS Y FARMACEUTICOS, …, priority 1989, dated 1990).

Columns and labels:
Swiss male mice = experiment: preliminary study of the main pharmacologic effects, observation of symptoms and reflexes in mice; type: in vivo; conditions: 300 mg/kg
Procedure: A preliminary study has been made of the main pharmacologic effects using Swiss male mice distributed in groups of four animals; each group was administered one of the products in doses of 300 mg/kg and the animals began to be observed, logging the time when symptoms appeared or given reflexes decreased: spontaneous activity, appearance of stereotype, trembling, convulsions, abnormal body position, loss of reflexes, extent of palpebral aperture, salivation, pyloerection, hypothermia, lachrymation or change in skin colour; observation lasted for 30 minutes and was repeated 1, 2, 3, 4 and 24 hours after treatment; the reference compound chosen was a well-known antiallergic, ketotyphene.

[1] = target: guinea pig isolated ileum contractions caused by histamine (Cavia porcellus, UniProt P31389); experiment: guinea pig isolated ileum contractions caused by histamine (in vitro antihistaminic activity); type: cell-based; conditions: drug concentration inhibiting 50% of the response to histamine; 10 minutes of incubation with each concentration; Tyrode solution at 37°C; unit M only printed in method b12 (10⁻⁸-10⁻⁵ M); read-out: CI50 (the source's name)
[2] = Swiss male mice, groups of four, observed 30 minutes and 1, 2, 3, 4 and 24 hours after treatment

Chain of guinea pig isolated ileum contractions caused by histamine (P31389 whole entry): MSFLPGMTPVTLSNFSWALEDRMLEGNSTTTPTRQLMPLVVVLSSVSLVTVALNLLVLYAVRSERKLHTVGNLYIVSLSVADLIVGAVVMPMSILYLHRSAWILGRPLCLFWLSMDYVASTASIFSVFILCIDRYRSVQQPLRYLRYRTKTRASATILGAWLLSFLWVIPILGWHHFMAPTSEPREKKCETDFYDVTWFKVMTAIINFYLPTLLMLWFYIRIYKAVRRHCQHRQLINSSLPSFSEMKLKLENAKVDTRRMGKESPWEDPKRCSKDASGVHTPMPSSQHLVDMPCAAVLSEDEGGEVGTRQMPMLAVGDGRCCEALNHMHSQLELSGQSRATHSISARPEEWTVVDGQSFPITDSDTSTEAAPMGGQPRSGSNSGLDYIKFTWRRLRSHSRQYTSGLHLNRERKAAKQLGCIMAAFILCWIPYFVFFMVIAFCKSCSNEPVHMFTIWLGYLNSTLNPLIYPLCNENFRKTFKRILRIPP

Molecule | Maximum effect observed/No. of animals Decreased spontaneous activity (Swiss male mice; [2]) | IC50 [1] [nM] | Maximum effect observed/No. of animals Body reflex loss (Swiss male mice; [2]) | Maximum effect observed/No. of animals Hearing reflex loss (Swiss male mice; mouse, in vivo) | Maximum effect observed/No. of animals Hypothermia (Swiss male mice; mouse, in vivo) | Maximum effect observed/No. of animals Palpebral potosis (Swiss male mice; mouse, in vivo)
N-[(1-diphenylmethyl)piperidine-4-yl]-1-[(4-fluorophenyl)methyl]-2-amino-1 H-benzimidazol [Example 5] | 0 | 56 |  |  |  | 
1-[(4-chlorophenyl)methyl]-N-[1-(diphenylmethyl)piperidine-4-yl]-2-amino-1 H-benzimidazol [Example 4] | 0 | 63 |  |  |  | 
CN1CCC(=C2c3ccccc3CC(=O)c3sccc32)CC1 [Ketotiphene] | 2/4 |  | 1/4 | - | 4/4 | 1/4
